# Laboratory results reported in article PMC9369610, “Pro-Apoptotic and Pro-Autophagic Properties of Cardenolides from Aerial Parts of Pergularia tomentosa” (Molecules, 2022).
# Legend:
# [1] = test system: HepG2 cells; assay: Transwell migration assay; type: cell-based, human; details: HepG2, 1 μM, 18 h
# Protocol: Transwell filters (coated with collagen) in serum-free media containing 0.1% of BSA, with a PET membrane with 8 μm pores (BD Biosciences, Milan, Italy), were rehydrated for 2 h at 37 °C. HepG2 were seeded in the upper chambers at a density of 75 × 10^3 cells in MEM with 0.1% BSA and treated with or without 1 µM of Pergularia compounds. MEM−0.1%BSA, supplemented with 10% FBS, was added to the lower chamber as chemoattractant. Control wells without 10% FBS were included to assess random migration. After incubation at 37 °C in 5% CO2 for 18 h, the migrated cells were fixed with 4% paraformaldehyde for 5 min, permeabilised with methanol for 20 min and stained with crystal violet 0.5% for 15 min at room temperature. The cells on the lower side of the filter were allowed to dry before counting. Eight separate bright-field images were randomly acquired of each filter using an Olympus CKX41 Image Analyzer. The cells in each image were counted and analysed compared to control-transfected cells.
# [2] = test system: HepG2, Caco-2, MRC5 and HUVEC cells; assay: MTT assay, comparison of cytotoxic effects at 1 μM on four cell types; type: cell-based, human; details: 24 h, Caco-2, HepG2, MRC5, HUVEC
# From the text: We focused attention on 12β,6′-dihydroxycalotropin (1), 16α-hydroxycalotropin (2), 12β-hydroxycalactin (3), calotropin (4), and calactin (5), among those described by Hosseini et al., and tested their cytotoxic activity by a 3-(4,5-dime-thylthiazol-2-yl)-2,5-diphenylte-tetrazolium bromide (MTT) assay on two cancer cell lines (HepG2 and Caco-2), not previously employed, on an immortalised nontumoral cell line (MRC5) and normal primary cells (HUVEC).
# Figure 2 Comparison of cytotoxic effects of P. tomentosa compounds on cancer cell lines (Caco-2 and HepG2), on an immortalised cell line (MRC5) and normal cells (HUVEC). Cells were treated for 24 h with 1 μM of each compound. Residual viability was measured by the MTT assay. Values are the means ± standard error (SE) of three independent experiments performed in triplicate. Statistical analysis was performed using the Student’s t-test. * p < 0.05 and ** p < 0.01 vs. cells treated with the vehicle (DMSO).
# The human liver hepatocellular carcinoma cell line, HepG2, and the human adenocarcinoma of colon cell line, Caco-2, were cultured in Eagle’s Minimum Essential medium supplemented with 1% (v/v) non-essential amino acids, 0.2 mM L-glutamine, 50 units/mL penicillin, 50 μg/mL streptomycin and 10% (v/v) or 20% (v/v) fetal bovine serum (Sigma Aldrich, Milan, Italy) for HepG2 or Caco-2, respectively. The human embryonal lung fibroblast cell line, MRC5, was cultured in Dulbecco’s Modified Eagle medium (Sigma Aldrich, Milan, Italy) supplemented with 10% (v/v) fetal bovine serum, 0.2 mM L-glutamine, 50 units/mL penicillin and 50 μg/mL streptomycin. HUVEC cells were cultured in endothelial growth medium-2, supplemented with fetal bovine serum (2%), VEGF (0.1%), rH FGF-B (0.4%), rH EGF (0.1%), GA-1000 (0.1%), hydrocortisone (0.04%), R3-IGF-1 (0.1%), heparin (0.1%) and ascorbic acid (0.1%). Cells were maintained at 37 °C in a 5% CO2, 95% air-humidified atmosphere and passaged twice a week. Cell lines were obtained from Interlab Cell Line Collection, Istituto Nazionale per la Ricerca sul Cancro, Genoa, Italy. HUVEC were obtained from Lonza (Milan, Italy).
# An MTT assay was used to analyse cell viability. Cells were seeded in 96 wells at the density of 2 × 10^4/cm^2 and, after 24 h, they were treated with P. tomentosa compounds or with the vehicle (DMSO). After a further 24 h of treatment, 0.5 mg/mL of MTT was added to the cell medium and incubated for 1.5 h at 37 °C. The resulting formazan crystals were dissolved in 100 μL of DMSO and absorbances were measured at 595 nm and 655 nm. The background signals at 655 nm were subtracted from 595 nm signals, and data were expressed as a percent of cell viability. The concentration of each compound that is required for 50% inhibition in vitro (IC50) was calculated as described in Husseini et al.. IC50 values were obtained for Caco-2, HepG2 and MRC5 cells by performing MTT assays with concentrations ranging from 0.01 μg/mL to 5 μg/mL.
structure (smiles),measurement,setting,value
"C[C@@H]1C[C@@H](O)[C@]2(O)O[C@@H]3C[C@@]4(C=O)[C@@H](CC[C@@H]5[C@@H]4CC[C@]4(C)[C@@H](C6=CC(=O)OC6)CC[C@]54O)C[C@H]3O[C@@H]2O1 [Compound 5, calactin]",effect on transwell migration,[1],most potent
same,"relative cytotoxicity (residual viability, MTT)",[2],most cytotoxic
